Measurements taken from patent US12685749B2, “Multi-functional cleaning and/or debridement composition” (CORTICALIS AS, priority 2021, dated 2026).
Like-named read-outs stand apart in the source and are kept apart here.

Columns and labels:
[1] = Source text: Methylene blue (MB) is a heterocyclic aromatic chemical compound with molecular formula: C16H18N3SCl (SigmaAldrich, Oslo, Norway). It has many uses in a range of different fields, such as biology and chemistry. […] A degradation of MB therefore can be used as a model for the in vivo degradation of organic material, such as bacteria, or dead, damaged, and/or infected tissue. At room temperature, it appears as a solid, odourless, dark green powder, that yields a blue solution when dissolved in water. When degraded in solution, methylene blue becomes colourless.
When methylene blue is analysed by UV-vis spectrophotometry (Lambda 25, Perkin Elmer, USA), it absorbs light at […]. This machine was used to quantify the degradation of MB.
The aim was to measure if methylene blue could be degraded by H2O2(PERDROGEN® 30% H2O2 (v/v), Sigma Aldrich AS, Oslo, Norway) at 5% only, without ACP in a composite hydrogel formulation comprising poloxamers (Sigma Aldrich AS, Oslo, Norway) at a concentration of 5% w/v. Then, an increasing concentration of amorphous calcium phosphates ACP (by mixing two precursor components. Component A contained MB in a mixture of mono- and dibasic ammonium phosphate at pH 5.5.) was added to the solution until a maximum concentration of 8 g/L.
The measurements were taken every 3 minutes for one hour. The pH of the suspension containing MB was also registered. […]

[2] = pH of the suspension containing MB; assay type: physicochemical
[3] = tested on: Staphylococcus epidermidis biofilm; experiment: Removal of biofilm from titanium disks, safranin staining; assay type: cell-based; details: two minutes exposure
Source text: Chemically pure (cp) titanium disks with a diameter of 6.2 mm and a height of 2 mm were used. […] After production, the disks were washed with NaOH at 40% v/v and HNO3 at 50% v/vin an ultrasonic bath to remove contaminants, then were washed with deionised water to reach a neutral pH and stored at room temperature in 70% v/v ethanol. Thereafter, the coins were placed in Eppendorf tube and steam autoclaved for sterilization.
Four chemical decontamination agents were selected for the in vitro testing: sterile saline H2O (VWR, Oslo, Norway), Chlorhexidine, 3% v/v H2O2(VWR, Oslo, Norway), a mixture of 3% v/v H2O2 and 2 g/L TiO2 (2 g nano-particles: P25 Aeroxide, Degussa Evonik, Evonik Industries AG, Essen, Germany).
15 sterile titanium disks per groups were inoculated. […] The amount of biofilm present on the surface of the titanium samples was assessed by using the safranin staining method: 10 min exposure to a 0.1% solution of safranin, then rinsed with distilled water, air dried, and exposed to a solution of 30% acetic acid to release the colored biomass from the titanium surfaces. The intensity of the staining was analyzed using a Synergy HT Multi-Detection Microplate Reader (Biotek, VT, USA) with a wavelength of 530 nm.

[4] = cited from earlier work

OO [H2O2, Hydrogen peroxide]
MB degradation ([1]; adding 5% v/v H2O2 to the ACP suspension): increased the MB degradation | MB degradation ([1]; increasing concentration of H2O2 in the ACP suspension): increased the MB degradation in a linear way | pH of the suspension ([2]; ACP suspension with MB, with H2O2 at 15% v/v): 3.3 | pH of the suspension ([2]; H2O2 suspension with MB, without ACP): 3.7 | biofilm removal with higher concentration [3]: increased the biofilm removal | effect on wound healing ([4]; 0.03% v/v solution, only if not applied repeatedly): may induce healing | effect on wound healing ([4]; 0.5% v/v solution): impede healing
